A short description of this data set: Photo-oxidation stress by high intensity UV light. Type of data set: physicochemical. The conditions noted are these: UV 254 nm, 24 hours, in buffer alone. The method, then:
Nanomesh wafers (ML-ES-06-31) were tested for photo-oxidative degradation by high intensity UV light (254 nm, for 24 hours). […] In contrast, 50% of the travoprost in buffer alone was degraded under these conditions.

Each structure is given as a SMILES string.

Compound `CC(C)OC(=O)CCC/C=C\C[C@@H]1[C@@H](/C=C/[C@@H](O)COc2cccc(C(F)(F)F)c2)[C@H](O)C[C@@H]1O` [travoprost] showed a travoprost degraded of 50%.

(Values after US10328033B2, “Methods and biocompatible compositions to achieve sustained drug release in the eye” (Integral Biosystems LLC, priority 2014, dated 2019).)
